Experimental data: US12295959B2 (priority 2021, dated 2025)

Assays:
rat cortical neurons = experiment: Neurite outgrowth assay; assay type: cell-based; set-up: key: A: Statistically significant mean increase as a percent of DMSO control at 10 μM or less.; B: No statistically significant mean increase as a percent of DMSO control at 10 μM or less; details: 72 h, 10 μM or less, vs DMSO control
Description: Neurite Outgrowth Assay. Changes in the pattern of neurite outgrowth have been implicated in psychiatric and neurodegenerative disorders as well as traumatic injuries. The discovery of new compounds that can positively affect neuritogenesis are important for developing new therapeutics for neurological diseases. Measurement of neurite outgrowth of rat cortical neurons using an automated image-based assay was used to determine the neuroplastic effects of the compounds of the present invention. The neurite outgrowth assay was performed at Neurofit SAS (France) as described below.
Pregnant Wistar rats (Janvier; France) were used for the study. They were delivered 6 days before their use. Upon arrival at Neurofit animal facility, they were housed one per cage and maintained in a room with controlled temperature (21-22° C.) and a reversed light-dark cycle (12 h/12 h; lights on: 17:30-05:30; lights off: 05:30-17:30) with food and water available ad libitum.
Female Wistar rats of 17 days gestation were killed by cervical dislocation and the fetuses were removed from the uterus. Their brains were placed in ice-cold medium of Leibovitz (L15, Gibco, Fisher bioblock, France). Cortices were dissected and meninges were carefully removed. The cortical neurons were dissociated by trypsinization for 30 min at 37° C. (trypsin-EDTA, Gibco) in presence of 0.1 mg/ml DNAse I (Roche, France). The reaction was stopped by addition of Dulbecco's Modified Eagle Medium (DMEM; Gibco) with 10% of fetal bovine serum (FBS; Gibco). The suspension was triturated with a 10-ml pipette and using a needle syringe 21G and centrifuged at 350×g for 10 min at room temperature. The pellet of dissociated cells was resuspended in a medium consisting of Neurobasal (Gibco) supplemented with 2% B27 supplement (Gibco), 0.5 mM L-Glutamine (Gibco), an antibiotic-antimicotic mixture. Viable cells were counted in a Neubauer cytometer using the trypan blue exclusion test (Sigma). Cells were seeded at a density of 10000 cells per well in 96-well plate (Costar) precoated with poly-L-lysine. Test compound at different concentrations were added to the cultures. Donepezil (positive control) was tested at 250 nM.
After 72 h (3 days) of plating, cultures were fixed with paraformaldehyde in PBS (4%, Sigma) for 30 min at 4° C. Then, cells were successively permeabilized with 0.1% Triton X100 for 30 min, saturated with PBS containing 3% of BSA and were incubated 1 h with anti-beta III tubulin antibody (Sigma) at 1/10 000 in PBS containing 0.5% of BSA. Cells were washed three times with PBS containing 0.5% of BSA, and they were incubated 1 h with goat anti-mouse antibody coupled with AF488 (Invitrogen A 11001) diluted at 1/1000 in PBS containing 0.5% of BSA. Finally, nuclei were staining with DAPI 1 mg/ml at 1/1000 in PBS containing 0.5% of BSA. After rinsing with PBS, the plate was filmed and neurite networks were examined and analyzed using High-Content Screening (CellInsight, Thermo Scientific). The average number of neurites per neuron and the average total length of neurites per neuron were the main parameters analyzed. Analysis of data was performed using analysis of variance (ANOVA). The Fisher's Protected Least Significant Difference test was used for multiple comparisons. A p value≤0.05 was considered significant. The software used is StatView 5.0 from SAS Institut.

5-HT2A [1] = molecular target: T1, 5-HT2A (Homo sapiens, UniProt P28223); experiment: Serotonin 5-HT2A in vitro cellular IPOne agonism assay (HTRF); assay type: cell-based; set-up: host or cells: CHO-K1; details: CHO-K1 cells, agonist mode
T1 sequence (P28223 whole entry): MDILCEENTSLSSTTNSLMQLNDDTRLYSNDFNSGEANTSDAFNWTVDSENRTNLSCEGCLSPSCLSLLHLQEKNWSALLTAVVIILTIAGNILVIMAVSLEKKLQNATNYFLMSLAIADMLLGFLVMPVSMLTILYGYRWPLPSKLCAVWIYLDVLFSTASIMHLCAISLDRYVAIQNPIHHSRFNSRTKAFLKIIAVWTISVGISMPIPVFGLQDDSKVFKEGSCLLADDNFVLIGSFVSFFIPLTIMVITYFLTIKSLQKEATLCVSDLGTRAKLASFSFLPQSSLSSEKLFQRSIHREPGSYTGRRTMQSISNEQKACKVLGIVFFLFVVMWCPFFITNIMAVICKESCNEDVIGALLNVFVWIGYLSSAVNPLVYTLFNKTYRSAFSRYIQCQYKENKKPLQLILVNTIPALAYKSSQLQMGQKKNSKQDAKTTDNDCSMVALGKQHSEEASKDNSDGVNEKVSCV
Procedure: (§1) Serotonin 5-HT2A In Vitro Cellular IPOne Agonism Assay. The 5-HT2A IPOne HTRF assay was performed at Epics Therapeutics S.A. (Belgium, FAST-0505I) using conventional methods. Briefly, CHO-K1 cells expressing human recombinant 5-HT2A receptor grown to mid-log phase in culture media without antibiotics were detached with PBS-EDTA, centrifuged, and resuspended in medium without antibiotics buffer. 20,000 cells were distributed in a 96 well plate and incubated overnight at 37° C. with 5% CO2.
For agonist testing, the medium was removed and 20 μl of assay buffer plus 20 μl of test compound or reference agonist are added in each well. The plate was incubated for 60 min. at 37° C. with 5% CO2.
(§2) After addition of the lysis buffer containing IP1-d2 and anti-IP1 cryptate detection reagents, plates were incubated 1-hour at room temperature, and fluorescence ratios were measured according to the manufacturer specification, with the HTRF kit.

5-HT2A [2] = molecular target: T1, 5-HT2A; experiment: Serotonin 5-HT2A in vitro cellular IPOne antagonism assay; assay type: cell-based; set-up: host or cells: CHO-K1; details: CHO-K1 cells, antagonist mode, reference agonist a-Me-5HT
Procedure: as §1, with “Serotonin 5-HT2A and 5-HT2C In Vitro” for “Serotonin 5-HT2A In Vitro”, “Cellular IPOne Antagonism Assay. The” for “Cellular IPOne Agonism Assay. The”, “(Belgium, FAST-0505I) in antagonism mode using conventional” for “(Belgium, FAST-0505I) using conventional”
For antagonist testing, a reference agonist a-Me-5HT was added and fluorescence signal monitored for several minutes, followed by addition of 20 μl of assay buffer plus 20 μl of test compound or reference antagonist ketanserin, in each well. The plate was incubated for 60 min. at 37° C. with 5% CO2.
as §2

5-HT2A [3] = molecular target: T1, 5-HT2A; experiment: Serotonin 5-HT2A in vitro radioligand binding competition assay ([3H]-DOI); set-up: purchased Epics Therapeutics S.A. (Belgium) FAST-0505B; host or cells: membrane extracts; details: [3H]-DOI competition, membrane extracts
Procedure: Serotonin 5-HT2A In Vitro Radioligand Binding Competition Assay. The 5-HT2A radioligand binding competition assay was performed at Epics Therapeutics S.A. (Belgium, FAST-0505B) using conventional methods. Briefly, competition binding was performed in duplicate in the wells of a 96 well plate (Master Block, Greiner, 786201) containing binding buffer (optimized for each receptor), membrane extracts (amount of protein/well optimized for each receptor), radiotracer [^3H]-DOI (final concentration optimized for each receptor) and test compound. Nonspecific binding was determined by co-incubation with 200-fold excess of cold competitor. The samples were incubated in a final volume of 0.1 ml at a temperature and for a duration optimized for each receptor and then filtered over filter plates. Filters were washed six times with 0.5 ml of ice-cold washing buffer (optimized for each receptor) and 50 μl of Microscint 20 (Packard) was added in each well. The plates were incubated 15 min on an orbital shaker and then counted with a TopCount™ for 1 min/well.

Compound	Increase in Neurite Branching (rat cortical neurons)	Increase in Neurite Length (rat cortical neurons)	Increase in Neurite Number (rat cortical neurons)	EC50 (5-HT2A [1])	IC50 (5-HT2A [2])	IC50 (5-HT2A [3])
CN1CCc2[nH]c3cc(OCc4ccccc4)ccc3c2CC1 [Compound 1, 8-(benzyloxy)-3-methyl-1,2,3,4,5,6-hexahydroazepino[4,5-b]indole]	B	A	A	> 10 µM	0.101 to 1 µM	0.101 to 1 µM
CN1CCc2[nH]c3cccc(OCc4ccccc4)c3c2CC1 [Compound 2, 10-(benzyloxy)-3-methyl-1,2,3,4,5,6-hexahydroazepino[4,5-b]indole]	B	A	A	> 10 µM	0.01 to 0.1 µM	< 0.01 µM
c1ccc(COc2ccc3c4c([nH]c3c2)CCNCC4)cc1 [Compound 3, 8-(benzyloxy)-1,2,3,4,5,6-hexahydroazepino[4,5-b]indole]	A	A	A	0.101 to 1 µM		0.101 to 1 µM
c1ccc(COc2cccc3[nH]c4c(c23)CCNCC4)cc1 [Compound 4, 10-(benzyloxy)-1,2,3,4,5,6-hexahydroazepino[4,5-b]indole]		B	B	< 0.01 µM		0.01 to 0.1 µM
Cn1c2c(c3ccc(OCc4ccccc4)cc31)CCNCC2 [Compound 5, 8-(benzyloxy)-6-methyl-1,2,3,4,5,6-hexahydroazepino[4,5-b]indole]	B	B	B	> 10 µM	0.101 to 1 µM	0.101 to 1 µM
CN1CCc2c(n(C)c3cc(OCc4ccccc4)ccc23)CC1 [Compound 6, 8-(benzyloxy)-3,6-dimethyl-1,2,3,4,5,6-hexahydroazepino[4,5-b]indole]	B	B	B	> 10 µM	0.101 to 1 µM	0.101 to 1 µM
Fc1ccc(COc2ccc3c4c([nH]c3c2)CCNCC4)cc1 [Compound 7, 8-((4-fluorobenzyl)oxy)~1,2,3,4,5,6-hexahydroazepino[4,5-b]indole]	B	B	B	0.101 to 1 µM	0.101 to 1 µM	0.101 to 1 µM
CN1CCc2[nH]c3cc(OCc4ccc(F)cc4)ccc3c2CC1 [Compound 8, 8-((4-fluorobenzyl)oxy)-3-methyl-1,2,3,4,5,6-hexahydroazepino[4,5-b]indole]	A	A	A	> 10 µM	0.01 to 0.1 µM	0.101 to 1 µM
Cn1c2c(c3ccc(OCc4ccc(F)cc4)cc31)CCNCC2 [Compound 9, 8-((4-fluorobenzyl)oxy)-6-methyl-1,2,3,4,5,6-hexahydroazepino[4,5-b]indole]	B	B	B	> 10 µM	0.101 to 1 µM	0.101 to 1 µM
CN1CCc2c(n(C)c3cc(OCc4ccc(F)cc4)ccc23)CC1 [Compound 10, 8-((4-fluorobenzyl)oxy)-3,6-dimethyl-1,2,3,4,5,6-hexahydroazepino[4,5-b]indole]		B		> 10 µM	0.01 to 0.1 µM	0.101 to 1 µM
c1ccc(Oc2ccc3c4c([nH]c3c2)CCNCC4)cc1 [Compound 11, 8-phenoxy-1,2,3,4,5,6-hexahydroazepino[4,5-b]indole]				1 to 10 µM	0.101 to 1 µM	1 to 10 µM
Cn1c2c(c3ccc(Oc4ccccc4)cc31)CCNCC2 [Compound 13, 6-methyl-8-phenoxy-1,2,3,4,5,6-hexahydroazepino[4,5-b]indole]				0.101 to 1 µM		1 to 10 µM
Fc1ccc(Oc2ccc3c4c([nH]c3c2)CCNCC4)cc1 [Compound 15, 8-(4-fluorophenoxy)-1,2,3,4,5,6-hexahydroazepino[4,5-b]indole]	A	A	A	0.101 to 1 µM		0.101 to 1 µM
Cn1c2c(c3ccc(Oc4ccc(F)cc4)cc31)CCNCC2 [Compound 17, 8-(4-fluorophenoxy)-6-methyl-1,2,3,4,5,6-hexahydroazepino[4,5-b]indole]				0.101 to 1 µM		0.101 to 1 µM
c1ccc(Oc2cccc3[nH]c4c(c23)CCNCC4)cc1 [Compound 20, 10-phenoxy-1,2,3,4,5,6-hexahydroazepino[4,5-b]indole]		B		0.01 to 0.1 µM		0.01 to 0.1 µM
Fc1ccc(Oc2cccc3[nH]c4c(c23)CCNCC4)cc1 [Compound 21, 10-(4-fluorophenoxy)-1,2,3,4,5,6-hexahydroazepino[4,5-b]indole]	B	B	B	0.01 to 0.1 µM		0.01 to 0.1 µM
Cn1c2c(c3c(Oc4ccc(F)cc4)cccc31)CCNCC2 [Compound 23, 10-(4-fluorophenoxy)-6-methyl-1,2,3,4,5,6-hexahydroazepino[4,5-b]indole]				0.101 to 1 µM		0.01 to 0.1 µM
c1ccc(COc2cccc3c4c([nH]c23)CCNCC4)cc1 [Compound 27, 7-(benzyloxy)-1,2,3,4,5,6-hexahydroazepino[4,5-b]indole]		A		0.101 to 1 µM		0.101 to 1 µM
